Test [1] deals with Mus musculus. In words: Antiamnesic activity in Mus musculus (mouse) assessed as retention of memory at 3 mg/kg, ip measured after 24 hr by elevated plus maze test. In kind it is functional. The note with it: route intraperitoneal.
In test [2] the test system is Mus musculus. The experiment in a line: Antiamnesic activity in Mus musculus (mouse) assessed as retention of memory at 1 mg/kg, ip measured after 24 hr by elevated plus maze test. Type of test: functional. To be noted: route intraperitoneal.
The target in test [3] is T1, Acetylcholinesterase (Mus musculus) (UniProt P21836).
T1 sequence (whole entry): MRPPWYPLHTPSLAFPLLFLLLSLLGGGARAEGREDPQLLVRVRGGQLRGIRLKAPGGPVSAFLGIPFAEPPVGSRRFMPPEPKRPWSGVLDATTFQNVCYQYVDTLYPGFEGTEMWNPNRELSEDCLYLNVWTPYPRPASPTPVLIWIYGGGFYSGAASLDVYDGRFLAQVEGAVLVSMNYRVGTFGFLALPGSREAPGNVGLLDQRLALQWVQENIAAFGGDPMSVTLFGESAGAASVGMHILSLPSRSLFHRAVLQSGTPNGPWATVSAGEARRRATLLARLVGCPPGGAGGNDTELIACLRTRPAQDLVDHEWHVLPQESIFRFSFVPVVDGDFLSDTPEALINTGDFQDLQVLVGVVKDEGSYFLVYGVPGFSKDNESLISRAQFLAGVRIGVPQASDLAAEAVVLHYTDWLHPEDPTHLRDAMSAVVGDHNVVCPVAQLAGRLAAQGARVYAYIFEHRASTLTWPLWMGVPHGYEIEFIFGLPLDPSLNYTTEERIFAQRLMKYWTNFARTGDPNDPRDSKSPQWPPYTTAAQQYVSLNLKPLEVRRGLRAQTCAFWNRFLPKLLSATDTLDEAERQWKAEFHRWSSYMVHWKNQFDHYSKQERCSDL
The experiment in a line: Inhibition of AChE in Mus musculus (mouse) brain homogenate at 10 uM after 5 min by Ellman method relative to control. Type of test: tissue-based. (In Ellman's method for cholinesterases, released thiocholine reacts with DTNB.)

Test [4] has as its target T1, Acetylcholinesterase (Mus musculus). In words: Inhibition of AChE in Mus musculus (mouse) brain homogenate assessed as residual activity measuring acetylthiocholine iodide hydrolysis per mg protein at 10 uM after 5 min by Ellman method. In kind it is tissue-based.

In ChEMBL document CHEMBL3046234, “Synthesis and pharmacological evaluation of some new naphthol derived aryloxy derivatives as cognition enhancers” (2012) one finds Activity and Imax data, which are given here for 10 molecules.

Consider `NC(=O)CN1CCCC1=O` [PIRACETAM], for which the figures for the Activity with Mus musculus [1] and in the test on Mus musculus [2] were 46.88% and 32.47%, respectively.
In turn, `CC(C)C(=O)Nc1cccc2c(OCCN3CCOCC3)cccc12` came in with an Imax in test [3] of 22.3%. For the same molecule, the Activity in test [4] turned out to be 59 nmol/min; in the test with Mus musculus [1] it was 25.43%; in the test on Mus musculus [2], 22.23%.
Regarding `Nc1cccc2c(OCC(=O)N3CCOCC3)cccc12`, the Imax in test [3] stood at 51%. Moreover, the Activity in test [4] was determined as 55.9 nmol/min; in the test with Mus musculus [1], 75.35%; in the test on Mus musculus [2], 43.26%.
Molecule `O=C(COc1cccc2ccccc12)N1CCCCC1` displayed an Imax in test [3] of 26.8%. Further, the Activity came to 83.5 nmol/min in test [4], 72.94% in the test with Mus musculus [1] and 63% in the test on Mus musculus [2].
On the same counts, the results for `O=C(COc1cccc2ccccc12)N1CCCC1` are 73.9%, 29.7 nmol/min, 68.44% and 51.59%.
Molecule `CN(C)C(=O)COc1cccc2ccccc12` had an Imax in test [3] of 33.1%. Also, the Activity in test [4] turned out to be 76.2 nmol/min; in the test with Mus musculus [1], 77.78%; with Mus musculus [2], 52.92%.
`CN1CCN(C(=O)COc2cccc3ccccc23)CC1` came in with an Imax in test [3] of 86.5%. In addition, the Activity in test [4] worked out at 15.4 nmol/min; in the test on Mus musculus [1], 86.18%; with Mus musculus [2], 73.76%.
Take `Nc1cccc2c(OCC(=O)N3CCCC3)cccc12`: the Imax in test [3] was 31.1%. For the same molecule, the Activity in test [4] came out at 78.5 nmol/min; in the test with Mus musculus [1], 74.47%; in the test with Mus musculus [2] it was 69.11%.
With `O=C(COc1cccc2ccccc12)N1CCOCC1`, the Imax in test [3] is 77.4%. Further, the Activity in test [4] turned out to be 25.8 nmol/min; in the test on Mus musculus [1], 81.65%; with Mus musculus [2], 62.69%.
Turning to `CCN(CC)CCOc1cccc2c(NC(=O)C(C)C)cccc12`, the Imax in test [3] stood at 26.3%. Moreover, the results for the Activity (in test [4]; in the test on Mus musculus [1]; in the test with Mus musculus [2]) were 56 nmol/min, 28.1% and 19.28%, respectively.
